Assay in all cases: yeast liquid growth assay
Common to all, as to format: cell-based

One test addresses T1, hA1AR S267I^7.32 (Homo sapiens, UniProt P30542, S267I).
T1 construct: expressed in transfected cells; host or cells: S. cerevisiae MMY24
T1 sequence (P30542 1-326 S267I): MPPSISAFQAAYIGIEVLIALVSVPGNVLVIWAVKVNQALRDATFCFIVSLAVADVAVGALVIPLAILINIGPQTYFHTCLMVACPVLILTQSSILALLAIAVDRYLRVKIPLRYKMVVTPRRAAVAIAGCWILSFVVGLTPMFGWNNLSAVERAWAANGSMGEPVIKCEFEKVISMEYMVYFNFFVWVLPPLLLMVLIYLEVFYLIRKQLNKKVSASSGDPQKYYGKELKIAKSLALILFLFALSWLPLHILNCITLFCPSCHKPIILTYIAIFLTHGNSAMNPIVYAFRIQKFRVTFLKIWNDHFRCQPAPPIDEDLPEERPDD
As to conditions: result in words. The method, then: (§1) The plasmids, pDT-PGK_hA1AR, containing either wild type or mutated hA1AR were transformed into a MMY24 S. cerevisiae strain following the lithium acetate procedure.
(§2) In order to characterize the mutant hA1ARs, liquid growth assays in 96-well plates were performed to obtain concentration–growth curves as previously described. […] The overnight cultures were then diluted to 40,000 cells/mL (OD600 ≈ 0.02) in a selective medium without uracil, leucine, and histidine (YNB-ULH). For the determination of constitutive activity, 50 μL of yeast cells and 150 μL of YNB-ULH medium containing different concentrations of 3-AT and 0.8 IU/mL ADA were then added to each well. To obtain concentration–growth curves, 2 μL of various concentrations of ligands, 50 μL of yeast cells, and 150 μL of YNB-ULH medium containing 7 mM 3-AT and 0.8 IU/mL ADA were then added to each well. After incubation at 30 °C for 35 h in a Genios plate reader (TECAN, Zürich, Switzerland) with shaking for 1 min at 300 rpm every 10 min, the optical density was measured at a wavelength of 595 nm, which represented the level of yeast cell growth.
(§3) All experimental data were analyzed by GraphPad Prism 7.0 or 8.0 (GraphPad Software Inc., San Diego, CA, USA). Data from yeast liquid growth and [^35S]GTPγS binding assays were analyzed by non-linear regression using “log (agonist) vs. response (three parameters)” or “log (inhibitor) vs. response (three parameters)” to obtain potency (EC50), inhibitory potency (IC50), and efficacy (Emax or Imax) values. The radioligand displacement curves were obtained from a statistically preferred one-site or two-site binding model. pKi values were calculated from pIC50 values using the Cheng–Prusoff equation, where KD values were obtained from the homologous competition assays from this study and calculated by non-linear regression using “one site–homologous” [62].

For a further test, the target named is T2, hA1AR A52V^2.47 (Homo sapiens, UniProt P30542, A52V).
T2 construct: expressed in transfected cells; host or cells: S. cerevisiae MMY24
T2 sequence (P30542 1-326 A52V): T1 sequence (P30542 1-326 S267I) with A52V, I267S
The method, then:
as §1, §2, §3

A further test has as its target T3, hA1AR W188C^5.46 (Homo sapiens, UniProt P30542, W188C).
T3 sequence (P30542 1-326 W188C): T1 sequence (P30542 1-326 S267I) with W188C, I267S
As for the experimental part: as §1, §2, §3

The target of another test is T4, hA1AR P86L^3.31 (Homo sapiens, UniProt P30542, P86L).
T4 construct: expressed in transfected cells; host or cells: S. cerevisiae MMY24
T4 sequence (P30542 1-326 P86L): T1 sequence (P30542 1-326 S267I) with P86L, I267S
As to conditions: result in words. The method, then:
as §1, §2, §3

For a further test, the target named is T5, wild type hA1AR (Homo sapiens, UniProt P30542).
T5 sequence (P30542 1-326): T1 sequence (P30542 1-326 S267I) with I267S
As to conditions: ratio over basal activity of wild type hA1AR, 7 mM 3-AT. As for the experimental part:
as §1, §2, §3

Each structure is given as a SMILES string. Where a chain is given by its changes, count along the chain named. “Also recorded” adds a separate entry of the source.

Consider `OC[C@H]1O[C@@H](n2cnc3c(NC4CCCC4)ncnc32)[C@H](O)[C@@H]1O` [CPA, N^6-cyclopentyladenosine], for which the results for the agonist-induced receptor activation entry on hA1AR S267I^7.32 and at hA1AR P86L^3.31 were “could not be activated; also recorded: complete loss of activation” and “could not be activated”, respectively. In addition, the “decrease in potency versus wild type hA1AR” value at hA1AR A52V^2.47 is recorded as “more than 400 fold”; at hA1AR W188C^5.46, 10 fold. Further, the Emax at hA1AR W188C^5.46 (ratio over basal activity of wild type hA1AR, 7 mM 3-AT) is reported as 4.35 ± 0.10; on wild type hA1AR, 4.83 ± 0.30.

(Values after article PMC9229843, “Cancer-Related Somatic Mutations in Transmembrane Helices Alter Adenosine A1 Receptor Pharmacology” (Molecules, 2022).)
